Measurements published in ChEMBL document CHEMBL3585264 (J Med Chem, 2015).
Blank lines part the entries; values can stand above or below the compound they belong to.

Assays:
[1] = Cmax in rat at 5 mg/kg, po; type: ADME, organism-based; design: dose 5 mg/kg, route oral; conditions: in vivo
[2] = Oral bioavailability in rat at 5 mg/kg; type: ADME, organism-based; conditions: in vivo
[3] = Mean residence time in rat at 2 mg/kg, iv; type: ADME, organism-based; conditions: in vivo
[4] = AUC (0 to infinity) in rat at 5 mg/kg, po; type: ADME, organism-based; design: dose 5 mg/kg, time infinity, route oral; conditions: in vivo
[5] = Plasma concentration in CB17 SCID mouse xenografted with human PC3 cells at 1 mg/kg, po measured at 6 hrs by LC/MS-MS analysis; type: ADME, organism-based, PC-3
[6] = Oral bioavailability in mouse at 5 mg/kg; type: ADME, organism-based; conditions: in vivo
[7] = Plasma concentration in CB17 SCID mouse xenografted with human PC3 cells at 10 mg/kg, po measured at 3 hrs by LC/MS-MS analysis; type: ADME, organism-based, PC-3
[8] = Plasma concentration in CB17 SCID mouse xenografted with human PC3 cells at 10 mg/kg, po measured at 10 hrs by LC/MS-MS analysis; type: ADME, organism-based, PC-3
[9] = Plasma concentration in CB17 SCID mouse xenografted with human PC3 cells at 10 mg/kg, po measured at 1 hr by LC/MS-MS analysis; type: ADME, organism-based, PC-3
[10] = Plasma concentration in CB17 SCID mouse xenografted with human PC3 cells at 1 mg/kg, po measured at 24 hrs by LC/MS-MS analysis; type: ADME, organism-based, PC-3
[11] = Oral bioavailability in dog at 0.3 mg/kg; type: ADME, organism-based, Canis lupus familiaris; conditions: in vivo
[12] = Plasma concentration in CB17 SCID mouse xenografted with human PC3 cells at 10 mg/kg, po measured at 24 hrs by LC/MS-MS analysis; type: ADME, organism-based, PC-3
[13] = Plasma concentration in CB17 SCID mouse xenografted with human PC3 cells at 1 mg/kg, po measured at 3 hrs by LC/MS-MS analysis; type: ADME, organism-based, PC-3
[14] = Plasma concentration in CB17 SCID mouse xenografted with human PC3 cells at 1 mg/kg, po measured at 10 hrs by LC/MS-MS analysis; type: ADME, organism-based, PC-3
[15] = Plasma concentration in CB17 SCID mouse xenografted with human PC3 cells at 10 mg/kg, po measured at 6 hrs by LC/MS-MS analysis; type: ADME, organism-based, PC-3
[16] = Plasma concentration in CB17 SCID mouse xenografted with human PC3 cells at 1 mg/kg, po measured at 1 hr by LC/MS-MS analysis; type: ADME, organism-based, PC-3
Rattus norvegicus = test: (§1) Tmax in rat at 5 mg/kg, po; type: ADME, organism-based; conditions: in vivo, BLD = below limit of detection
[17] = as §1; type: ADME, organism-based; conditions: in vivo

Cmax [1]: 550 nM | bioavailability [2]: 50% | MRT [3]: 1.2 h | AUC(0-inf) [4]: 5.27 µM·h
SMILES: CCN1CC(=O)Nc2ncc(-c3ccc(-c4nc[nH]n4)nc3C)nc21

concentration at 6 h [5]: 130 nM | Cmax [1]: 1670 nM | bioavailability [2]: 78% | bioavailability [6]: 53% | concentration at 3 h [7]: 5690 nM | concentration at 10 h [8]: 1180 nM | concentration at 1 h [9]: 6780 nM | MRT [3]: 4.3 h | concentration at 24 h [10]: 5 nM | bioavailability [11]: 100% | concentration at 24 h [12]: 800 nM | concentration at 3 h [13]: 340 nM | concentration at 10 h [14]: 120 nM | concentration at 6 h [15]: 2100 nM | AUC(0-inf) [4]: 27.5 µM·h | concentration at 1 h [16]: 530 nM
SMILES: CCN1C(=O)CNc2ncc(-c3ccc(-c4nc[nH]n4)nc3C)nc21 [CC-115]

Tmax (Rattus norvegicus): BLD
SMILES: O=C1CN(CCC2CCOCC2)c2nc(-c3ccc(-c4nc[nH]n4)cc3)cnc2N1

Cmax [1]: 20 nM | AUC(0-inf) [4]: 0.18 µM·h | Tmax [17]: 0.9 h
SMILES: O=C1CN(CCC2CCOCC2)c2nc(-c3ccc(-c4nc[nH]n4)nc3)cnc2N1
